# According to patent US20250213574A1, “THERAPEUTIC COMBINATIONS COMPRISING UBIQUITIN- SPECIFIC-PROCESSING PROTEASE 1 (USP1) INHIBITORS AND CHEMOTHERAPY AGENTS” (KSQ Therapeutics, Inc., priority 2022, published 2025):
# Several values for one entry are separate records, joined by “and”; a condition that tells them apart may be missing. Equal entries are not always repeated.
# Assays:
# BECKER = test: Colony formation (CFU) assay, BECKER; type: cell-based; details: 336 h, CFU ~14 days, wells with DMSO or 300 nM Compound 1, read-out: Chemotherapy nM IC50s
# Experimental: (§1) In vitro experiments were conducted using the colony formation unit (CFU) assay on various cell lines. The CFU assay involved first establishing what cell plating density enabled the development of clearly interspersed colonies on a six-well plate when left to grow for around 14 days. […] At or around day 14 when clearly interspersed colonies were visible in the DMSO-treated wells, the cells were fixed and stained using 0.1% crystal violet in 10% ethanol for 20 minutes at room temperature. The plates were imaged then the amount of crystal violet stain in each well was quantified by extracting the crystal violet into 10% acetic acid and the absorbance measured at 565 nm.
# (§2) For certain cell lines, multiple IC50 values were taken, and those are separated by commas. Synergy scores are in parentheticals.
# GOTO = test: Colony formation (CFU) assay, GOTO; type: cell-based; details: 336 h, nervous system, CFU ~14 days, wells with DMSO or 300 nM Compound 1, read-out: Chemotherapy nM IC50s
# Experimental: as §1, §2
# U251MG = test: Colony formation (CFU) assay, U251MG; type: cell-based; details: Homo sapiens, U-251, 336 h, nervous system, CFU ~14 days, wells with DMSO or 300 nM Compound 1, read-out: Chemotherapy nM IC50s
# Experimental: as §1, §2
# HCC1806 = test: Colony formation (CFU) assay, HCC1806; type: cell-based; details: HCC1806, breast; CFU ~14 days; wells with DMSO or 300 nM Compound 1; read-out: Chemotherapy nM IC50s (converted)
# Experimental: as §1, §2
# [1] = single dose in Balb/c nude mice; Aston W., et al., BMC Cancer 17:684 (2017); cited from earlier work
# NCIH596 = test: Colony formation (CFU) assay, NCIH596; type: cell-based; details: NCIH596, lung
# Experimental: as §1, §2
# A549 = test: Colony formation (CFU) assay, A549; type: cell-based; details: A549, lung
# Experimental: as §1, §2
# HCT116 = test: Colony formation (CFU) assay, HCT116; type: cell-based; details: HCT116, colon; CFU ~14 days; wells with DMSO or 300 nM Compound 1; read-out: Chemotherapy nM IC50s
# Experimental: as §1, §2
# various cell lines = test: Colony formation (CFU) assay, summary over cell lines of Table 1; type: cell-based; details: combination of USP1 inhibitor (Compound 1, 300 nM) and the chemotherapy agent
# Experimental: as §1
# In certain cell lines, combinations of the disclosure are synergistic. In some aspects, these combinations are determined to have a Bliss score is about 6, about 7, about 8, about 9, about 10, about 11, about 12, about 13, about 14, about 15, about 16, about 17, about 18, about 19, about 20 or about 25.
# U2OS = test: Colony formation (CFU) assay, U2OS; type: cell-based; details: bone
# Experimental: as §1, §2
# 5637 = test: Colony formation (CFU) assay, 5637; type: cell-based; details: 5637, bladder
# Experimental: as §1, §2
# HT1376 = test: Colony formation (CFU) assay, HT1376; type: cell-based; details: HT1376, bladder
# Experimental: as §1, §2
# NCIH1650 = test: Colony formation (CFU) assay, NCIH1650; type: cell-based; details: NCIH1650, lung
# Experimental: as §1, §2
# UBLC1 = test: Colony formation (CFU) assay, UBLC1; type: cell-based; details: UBLC1, bladder
# Experimental: as §1, §2
# [2] = Maximum tolerated dose of Compound 1 cocrystal in combination with cisplatin, non-tumor bearing mice; details: non-tumor bearing female Balb/c nude mice; Compound 1 oral gavage once daily 28 days + cisplatin i.v. once a week days 0, 7, 14, 21
# Experimental: The maximum tolerated dose (MTD) of the USP1 inhibitor Compound 1 cocrystal in combination with cisplatin was evaluated in non-tumor bearing Balb/c nude mice. 6-8 week old female Balb/c nude mice from Beijing Anikeeper Biotech Co. Ltd were randomized into groups of 5 for control, cisplatin (4 mg/kg) alone, cisplatin (5 mg/kg) alone, cisplatin (6 mg/kg) alone, Compound 1 (50 mg/kg) and cisplatin (4 mg/kg) combination group, Compound 1 (100 mg/kg) and cisplatin (4 mg/kg) combination group, Compound 1 (300 mg/kg) and cisplatin (4 mg/kg) combination group, Compound 1 (50 mg/kg) and cisplatin (5 mg/kg) combination group, Compound 1 (100 mg/kg) and cisplatin (5 mg/kg) combination group, Compound 1 (300 mg/kg) and cisplatin (5 mg/kg) combination group, Compound 1 (50 mg/kg) and cisplatin (6 mg/kg) combination group, Compound 1 (100 mg/kg) and cisplatin (6 mg/kg) combination group, and Compound 1 (300 mg/kg) and cisplatin (6 mg/kg) combination group. Mice were treated with the relevant dose of Compound 1 via oral gavage once daily for 28 days or relevant dose of cisplatin via intravenous injection once a week on days 0, 7, 14, and 21. […]
# Body weights were measured daily. Tolerability was assessed by monitoring body weight and calculating body weight changes as % from body weight on day of treatment start (day 0), as shown in FIG. 1-3. […]
# SUM149PT = test: Colony formation (CFU) assay, SUM149PT; type: cell-based; details: breast
# Experimental: as §1, §2
# 647V = test: Colony formation (CFU) assay, 647V; type: cell-based; details: bladder
# Experimental: as §1, §2
# HBCx8 = test: Colony formation (CFU) assay, HBCx8; type: cell-based; details: HBCx8, breast
# Experimental: as §1, §2
# HBCx9 = test: Colony formation (CFU) assay, HBCx9; type: cell-based; details: HBCx9, breast
# Experimental: as §1, §2
# KU1919 = test: Colony formation (CFU) assay, KU1919; type: cell-based; details: KU1919, bladder
# Experimental: as §1, §2
# UMUC3 = test: Colony formation (CFU) assay, UMUC3; type: cell-based; details: UMUC3, bladder
# Experimental: as §1, §2
# [3] = test system: HBCx-8 patient-derived breast xenograft; test: Anti-tumor activity, HBCx-8 patient-derived breast xenograft model; type: in vivo, Athymic nude mice; details: Compound 1 100 mg/kg p.o. once daily 42 days + cisplatin 5 mg/kg i.v. once weekly x3; HBCx-8 PDX, nude mice; FIG. 7A
# Experimental: Six to nine week old female Athymic nude mice from Envigo were anesthetized and a 20 mm^3 tumor fragment placed subcutaneously via incision in the flank. […] Cisplatin was administered intravenously via tail vein once weekly for a total of 3 doses. Compound 1 was administered via oral gavage once daily for 42 days. Body weight and tumor volume were measured twice per week. Tumor volume was calculated as mean and standard error of the mean for each treatment group.
# [4] = test system: MDA-MB-436 cell line-derived breast xenograft; test: Anti-tumor activity, MDA-MB-436 cell line-derived breast xenograft model; type: in vivo; details: Compound 1 100 mg/kg p.o. once daily 28 days + cisplatin 2 mg/kg i.v. once weekly x4; MDA-MB-436, NOD SCID mice; FIG. 6A
# Experimental: Six to eight week old female NOD SCID mice from Beijing Anikeeper Biotech CO, Ltd were implanted subcutaneously with 1×10^7 MDA-MB-436 cells. When tumors established to a tumor volume of approximately 240 mm^3 mice were randomized into groups of 5 and were assigned into the following groups: control, cisplatin (2 mg/kg), Compound 1 (100 mg/kg) or Compound 1 (100 mg/kg) and cisplatin (2 mg/kg) combination. Cisplatin was administered intravenously via tail vein once weekly for a total of 4 doses. Compound 1 was administered via oral gavage once daily for 28 days. Body weight and tumor volume were measured twice per week. Tumor volume was calculated as mean and standard error of the mean for each treatment group.
# [5] = test system: HBCx-11 patient-derived breast xenograft; test: Anti-tumor activity, HBCx-11 patient-derived breast xenograft model; type: in vivo, Athymic nude mice; details: Compound 1 100 mg/kg p.o. once daily 28 days + cisplatin 3 mg/kg i.v. once weekly x4; HBCx-11 PDX, nude mice; FIG. 8A
# Experimental: Six to nine week old female Athymic nude mice from Envigo were anesthetized and a 20 mm^3 tumor fragment placed subcutaneously via incision in the flank. When tumors established to a tumor volume of between 75 and 196 mm^3 mice were randomized into groups of 3 and were assigned into the following groups: control, Compound 1 (100 mg/kg), cisplatin (3 mg/kg) or Compound 1 (100 mg/kg) and cisplatin (3 mg/kg) combination. Cisplatin was administered intravenously via tail vein once weekly for a total of 4 doses. Compound 1 was administered via oral gavage once daily for 28 days. Body weight and tumor volume were measured twice per week. Tumor volume was calculated as mean and standard error of the mean for each treatment group.
# [6] = CFU ~14 days, wells with DMSO or 300 nM Compound 1, read-out: Chemotherapy nM IC50s
# [7] = chemotherapy agent in combination with 300 nM Compound 1
smiles,measurement,setting,value
"Cn1nnc2c(C(N)=O)ncn2c1=O [Temozol., Temozolomide]",IC50,BECKER,< 1 nM
same,IC50,GOTO,< 1 nM
same,IC50,U251MG,< 1 nM
"N.N.[Cl][Pt][Cl] [Cis., cisplatin]",IC50,HCC1806,97 nM and 130 nM
same,reported MTD,[1],6 mg/kg
same,IC50,NCIH596; [6],129 nM
same,synergy score,NCIH596; [7],(0)
same,IC50,A549; [6],> 316 nM
same,synergy score,A549; [7],(11)
same,IC50,HCT116,1260 nM and 895 nM
same,synergy of combination with USP1 inhibitor,various cell lines,synergy was detected
same,IC50,U2OS; [6],> 316 nM
same,synergy score,U2OS; [7],(3)
same,IC50,5637; [6],598 nM
same,synergy score,5637; [7],(12)
same,IC50,HT1376; [6],734 nM
same,synergy score,HT1376; [7],(10)
same,IC50,NCIH1650; [6],> 1000 nM
same,synergy score,NCIH1650; [7],(−1)
same,IC50,UBLC1; [6],308 nM
same,synergy score,UBLC1; [7],(−2)
same,combination MTD,[2],6 mg/kg
same,IC50,SUM149PT; [6],> 316 nM
same,synergy score,SUM149PT; [7],(10)
same,IC50,647V; [6],1780 nM
same,synergy score,647V; [7],0
same,IC50,HBCx8; [6],142 nM
same,synergy score,HBCx8; [7],(1)
same,IC50,HBCx9; [6],473 nM
same,synergy score,HBCx9; [7],(−1)
same,IC50,KU1919; [6],894 nM
same,synergy score,KU1919; [7],(1)
same,IC50,UMUC3; [6],212 nM
same,synergy score,UMUC3; [7],(1)
"COc1ncnc(C2CC2)c1-c1ncc2cnn(Cc3ccc(-c4nc(C(F)(F)F)cn4C(C)C)cc3)c2n1 [Compound 1, 6-(4-cyclopropyl-6-methoxypyrimidin-5-yl)-1-(4-(1-isopropyl-4-(trifluoromethyl)-1H-imidazol-2-yl)benzyl)-1H-pyrazolo[3,4-d]pyrimidine]",anti-tumor activity (tumor volume) of combination versus single agents,[3],more prolonged anti-tumor activity
same,anti-tumor activity (tumor volume) of combination versus single agents,[4],more prolonged anti-tumor activity
same,anti-tumor activity (tumor volume) of combination versus single agents,[5],superior and more prolonged anti-tumor activity
